Test results: ChEMBL document CHEMBL1155767, “Three new sesquiterpene glycosides from Dendrobium nobile with immunomodulatory activity” (2001)

How the values were obtained:
Format in all cases: functional
Lymphocyte [1] = experiment: Immunomodulatory activity in concanavalin A-stimulated mouse lymphocytes assessed as proliferative optical density at 0.1 uM after 48 hrs by MTT assay (Rvb=0.47+/-0.01)
Lymphocyte [2] = experiment: Immunomodulatory activity in LPS-stimulated mouse lymphocytes assessed as proliferative optical density at 0.1 uM after 48 hrs by MTT assay (Rvb=0.45+/-0.01)
Lymphocyte [3] = experiment: Immunomodulatory activity in concanavalin A-stimulated mouse lymphocytes assessed as proliferative optical density at 1 uM after 48 hrs by MTT assay (Rvb=0.47+/-0.01)
Lymphocyte [4] = experiment: Immunomodulatory activity in LPS-stimulated mouse lymphocytes assessed as proliferative optical density at 1 uM after 48 hrs by MTT assay (Rvb=0.45+/-0.01)
Lymphocyte [5] = experiment: Immunomodulatory activity in concanavalin A-stimulated mouse lymphocytes assessed as proliferative optical density at 10 uM after 48 hrs by MTT assay (Rvb=0.47+/-0.01)
Lymphocyte [6] = experiment: Immunomodulatory activity in LPS-stimulated mouse lymphocytes assessed as proliferative optical density at 10 uM after 48 hrs by MTT assay (Rvb=0.45+/-0.01)
Lymphocyte [7] = experiment: Immunomodulatory activity in concanavalin A-stimulated mouse lymphocytes assessed as proliferative optical density at 0.1 uM after 48 hrs by MTT assay (Rvb=0.80+/-0.02)
Lymphocyte [8] = experiment: Immunomodulatory activity in LPS-stimulated mouse lymphocytes assessed as proliferative optical density at 0.1 uM after 48 hrs by MTT assay (Rvb=0.56+/-0.03)
Lymphocyte [9] = experiment: Immunomodulatory activity in concanavalin A-stimulated mouse lymphocytes assessed as proliferative optical density at 1 uM after 48 hrs by MTT assay (Rvb=0.80+/-0.02)
Lymphocyte [10] = experiment: Immunomodulatory activity in LPS-stimulated mouse lymphocytes assessed as proliferative optical density at 1 uM after 48 hrs by MTT assay (Rvb=0.56+/-0.03)
Lymphocyte [11] = experiment: Immunomodulatory activity in concanavalin A-stimulated mouse lymphocytes assessed as proliferative optical density at 10 uM after 48 hrs by MTT assay (Rvb=0.80+/-0.02)
Lymphocyte [12] = experiment: Immunomodulatory activity in LPS-stimulated mouse lymphocytes assessed as proliferative optical density at 10 uM after 48 hrs by MTT assay (Rvb=0.56+/-0.03)

Row | Structure (SMILES) | OD (Lymphocyte [1]) | OD (Lymphocyte [2]) | OD (Lymphocyte [3]) | OD (Lymphocyte [4]) | OD (Lymphocyte [5]) | OD (Lymphocyte [6]) | OD (Lymphocyte [7]) | OD (Lymphocyte [8]) | OD (Lymphocyte [9]) | OD (Lymphocyte [10]) | OD (Lymphocyte [11]) | OD (Lymphocyte [12])
1 | CC(C)[C@H]1CC[C@]2(C)[C@@H](CO[C@@H]3O[C@H](CO)[C@@H](O)[C@H](O)[C@H]3O)CC[C@@H]2[C@@H]1CO[C@@H]1O[C@H](CO)[C@@H](O)[C@H](O)[C@H]1O [DENDRONOBILOSIDE A] | 0.46 | 0.49 | 0.53 | 0.5 | 0.6 | 0.56 | – | – | – | – | – | –
2 | CC(C)[C@H]1CC[C@@]2(C)[C@H](CC[C@]2(O)CO)[C@@H]1CO[C@@H]1O[C@H](CO)[C@@H](O)[C@H](O)[C@H]1O [DENDRONOBILOSIDE B] | – | – | – | – | – | – | 0.68 | 0.54 | 0.68 | 0.51 | 0.71 | 0.57
3 | C[C@@H]1CC[C@H]2[C@@H]1[C@H]1[C@@H](CC[C@@]2(O)CO[C@@H]2O[C@H](CO)[C@@H](O)[C@H](O)[C@H]2O)[C@@]1(C)CO [DENDROSIDE A] | 0.64 | 0.45 | 0.62 | 0.52 | 0.5 | 0.45 | – | – | – | – | – | –
